“Also recorded” adds a separate entry of the source.
Legend:
[1] = target: CYP3A4 (Homo sapiens, UniProt P08684); assay: Loss of parent drug as catalyzed by CYPs; type: in vitro ADME; conditions: in vitro
Source text: (§1) No unique human metabolite was identified. Preliminary evaluations of metabolism in the plasma, bile, and urine of rats, dogs, and monkeys indicated metabolic processes of oxidation, glutathione binding, and hydrolysis.

[2] = Glutathione binding and depletion in vitro; type: in vitro ADME
Source text: as §1

[3] = tested on: CYP enzymes; assay: Nonclinical CYP interaction studies; type: in vitro ADME
Source text: as §1

[4] = tested on: B cell receptor; assay: Whole blood potency: CD69 on CD19+ B cells after anti-human IgD; type: cell-based; conditions: blood from four healthy donors, 2 hours with compound, anti-human IgD 10 μg/mL 18 hours, read-out: EC50, CD69 on gated CD19+ B cells in whole blood
[5] = tested on: NSCLC (KrasLA2); assay: KrasLA2 non-small cell lung cancer model; type: in vivo, mice; conditions: dosing of 15 mg/kg
Source text: The model is designed to have sporadic expression in single cells of G12D mutant Kras off its own promoter triggered by spontaneous intrachromosomal recombination. Johnson, et al. Nature 2001, 410, 1111-16. While the mutant Kras protein is expressed in a few cells in all tissues, tumor development is seen only in the lung at high penetrance.

[6] = tested on: NK cells; assay: Whole blood NK cell degranulation with obinutuzumab-opsonised MEC-1 cells; type: cell-based, human; conditions: 1 hour pretreatment (10, 1, 0.1 μM), MEC-1 opsonised with obinutuzumab 1 μg/mL, 4 hours, n=3
Procedure: Degranulation in whole blood was performed as follows. […] Exponentially growing cells were used. On the day of the experiment, 8 mL of blood was drawn from a normal volunteer into a test tube containing desirudin to obtain a final concentration of 50 μg/mL. A white blood cell (WBC) count of whole blood was performed. […] The ibrutinib control and two blinded BTK inhibitors were diluted in X-VIVO 15 serum-free hematopoietic cell medium (Lonza Group, Ltd.) to concentrations of 200 μM, 20 μM and 2 μM. 170 μL aliquots of unmanipulated whole blood were incubated with 10 μL BTK inhibitors or X-VIVO 15 medium for one hour into a plate. […] The samples were placed in a 5% CO2 incubator for 4 hours at 37° C.
After 4 hours, the samples were mixed gently and 50 μL aliquots were removed from each well and placed in fluorescence-activated cell sorting (FACS) test tubes. A 20 μL aliquot of anti-CD56-APC antibody and anti-CD107a-PE antibody was added. The samples were incubated for 20 minutes at room temperature in the dark. An aliquot of 2 mL of FACS lysing solution (BD Biosceinces) was added. The samples were again incubated for 5 minutes, and then centrifuged at 2000 rpm for 5 minutes. Supernatant was discarded and the cell pellet was resuspended in 500 μL of PBS. The samples were analyzed on the flow cytometer for CD107a^+ NK cells (CD56^+).

[7] = tested on: Th17 cells; assay: Th17 development from enriched CD4+ T cells; type: cell-based; conditions: anti-TCRβ plus anti-CD28, skewing cytokines, 4 days
Procedure: (§2) Enriched CD4^+ T cells are plated on 24-well culture dishes that have been precoated 2 hr with 250 μL anti-TCRβ (0.5 μg/mL) plus anti-CD28 (5 μg/mL) at 37° C. in PBS. The cells are then supplemented with media containing BTK inhibitors along with the skewing cytokines as indicated in the following. The Th17 and Treg cultures are grown for 4 days before analysis. The cells are maintained for an additional 3 days with skewing cytokines (Th17; 20 ng/mL IL-6, 0.5 ng/mL TGF-β, 5 μg/mL IL-4, 5 μg/mL IFN-γ and Treg; 0.5 ng/mL TGF-β, 5 μg/mL IL-4, 5 μg/mL IFN-γ) and are supplemented with IL2 as a growth factor.

[8] = tested on: regulatory T cell (Treg); assay: Treg development from enriched CD4+ T cells; type: cell-based; conditions: anti-TCRβ plus anti-CD28, skewing cytokines, 4 days
Procedure: as §2

[9] = tested on: MDSC (monocytic) and NK cells; assay: Flow cytometry of peripheral blood cell subsets in CLL patients; type: in vivo, human; conditions: patients with decreasing ALC %, doses including 100 mg BID, 200 mg QD, 400 mg QD
Procedure: PBMCs were stained with monoclonal antibodies conjugated to fluorescent tags (flourochromes) to identify cell subsets via flow cytometry. Non-viable cells were excluded from the analysis using the dye 7-aminoactinomycin D (7-AAD). To produce the metric of percent change, the following steps were taken. First, each cell subset was defined by hierarchical flow cytometry gating. Then, the change in frequency (between day 1 and day 28) was calculated for each cell subset. MDSC subsets were measured as a % of all myeloid cells. T cell subsets were measured as a % of all CD3^+ cells, and NK cells were measured as a % of all live CD45^+ cells. […] A cycle is 28 days. […] This may include patients who had quickly resolving lymphocytosis and those with no initial lymphocytosis. […] This may include patients who had quickly resolving lymphocytosis and those having no initial lymphocytosis. The effects in FIG. 52 to FIG. 55 are observed in multiple cohorts, at doses including 100 mg BID, 200 mg QD, and 400 mg QD. In FIG. 56 and FIG. 57, the effects on NK cells and MDSC cells are compared to a number of other markers versus % change in ALC at C1D28 and C2D28. These other markers include CD4+ T cells, CD8+ T cells, CD4+/CD8+ T cell ratio, NK-T cells, PD-1+CD4+ T cells, and PD-1+CD8+ T cells. The effects on NK cells and MDSC cells are observed to be much more pronounced than on any of these other markers.

[10] = tested on: CXCL12 and CCL2; assay: Plasma chemokines in CLL patients; type: in vivo, human; conditions: plasma of treated CLL patients
[11] = tested on: human platelets; assay: Laser injury thrombus formation in VWF HA1 mice infused with human platelets; conditions: 0.1 μM, 0.5 μM, or 1 μM
Procedure: Injury to the vessel wall of arterioles ([…] diameter) was performed using a pulsed nitrogen dye laser (440 nm, Photonic Instruments) applied through a 20× water-immersion Olympus objective (LUMPlanF1, 0.5 numerical aperture (NA)) of a Zeiss Axiotech vario microscope. […] The extent of thrombus formation was assessed for 2 minutes after injury and the area (μm^2) of coverage determined (Image IQ, Andor Technology).
The BTK inhibitor-treated human platelets were fluorescently labeled and infused continuously through a catheter inserted into the femoral artery.

[12] = tested on: GPVI; assay: GPVI platelet aggregation (convulxin); type: cell-based, human
Procedure: GPVI platelet aggregation was measured for Formula (2) and Formula (10) (ibrutinib). Blood was obtained from untreated humans, and platelets were purified from […] by centrifugation. Cells were resuspended to a final concentration of 350,000/μL in buffer containing 145 mmol/L NaCl, 10 mmol/L HEPES, 0.5 mmol/L Na2HPO4, 5 mmol/L KCl, 2 mmol/L MgCl2, 1 mmol/L CaCl2, and 0.1% glucose, at pH 7.4. Stock solutions of Convulxin (CVX) GPVI were prepared on the day of experimentation and added to platelet suspensions 5 minutes (37° C., 1200 rpm) before the induction of aggregation. Aggregation was assessed with a Chronolog Lumi-Aggregometer (model 540 VS; Chronolog, Havertown, PA) and permitted to proceed for 6 minutes after the addition of agonist. The results are reported as maximum percent change in light transmittance from baseline with platelet buffer used as a reference.
In FIG. 72, the results of CVX-induced (250 ng/mL) human platelet aggregation results before and 15 minutes after administration of the BTK inhibitors to 6 healthy individuals are shown.

[13] = tested on: 80 known pharmacologic targets such as G-protein-coupled receptors, nuclear receptors, proteases, and ion channels; assay: Binding assays with 80 known pharmacologic targets; conditions: screened at 10 μM
[14] = target: EGFR (Homo sapiens, UniProt P00533); assay: EGF receptor phosphorylation in A431 cells (phosphoflow); conditions: 10 μM; A431 human epidermoid cancer cell line
EGFR, sequence (P00533 25-1210): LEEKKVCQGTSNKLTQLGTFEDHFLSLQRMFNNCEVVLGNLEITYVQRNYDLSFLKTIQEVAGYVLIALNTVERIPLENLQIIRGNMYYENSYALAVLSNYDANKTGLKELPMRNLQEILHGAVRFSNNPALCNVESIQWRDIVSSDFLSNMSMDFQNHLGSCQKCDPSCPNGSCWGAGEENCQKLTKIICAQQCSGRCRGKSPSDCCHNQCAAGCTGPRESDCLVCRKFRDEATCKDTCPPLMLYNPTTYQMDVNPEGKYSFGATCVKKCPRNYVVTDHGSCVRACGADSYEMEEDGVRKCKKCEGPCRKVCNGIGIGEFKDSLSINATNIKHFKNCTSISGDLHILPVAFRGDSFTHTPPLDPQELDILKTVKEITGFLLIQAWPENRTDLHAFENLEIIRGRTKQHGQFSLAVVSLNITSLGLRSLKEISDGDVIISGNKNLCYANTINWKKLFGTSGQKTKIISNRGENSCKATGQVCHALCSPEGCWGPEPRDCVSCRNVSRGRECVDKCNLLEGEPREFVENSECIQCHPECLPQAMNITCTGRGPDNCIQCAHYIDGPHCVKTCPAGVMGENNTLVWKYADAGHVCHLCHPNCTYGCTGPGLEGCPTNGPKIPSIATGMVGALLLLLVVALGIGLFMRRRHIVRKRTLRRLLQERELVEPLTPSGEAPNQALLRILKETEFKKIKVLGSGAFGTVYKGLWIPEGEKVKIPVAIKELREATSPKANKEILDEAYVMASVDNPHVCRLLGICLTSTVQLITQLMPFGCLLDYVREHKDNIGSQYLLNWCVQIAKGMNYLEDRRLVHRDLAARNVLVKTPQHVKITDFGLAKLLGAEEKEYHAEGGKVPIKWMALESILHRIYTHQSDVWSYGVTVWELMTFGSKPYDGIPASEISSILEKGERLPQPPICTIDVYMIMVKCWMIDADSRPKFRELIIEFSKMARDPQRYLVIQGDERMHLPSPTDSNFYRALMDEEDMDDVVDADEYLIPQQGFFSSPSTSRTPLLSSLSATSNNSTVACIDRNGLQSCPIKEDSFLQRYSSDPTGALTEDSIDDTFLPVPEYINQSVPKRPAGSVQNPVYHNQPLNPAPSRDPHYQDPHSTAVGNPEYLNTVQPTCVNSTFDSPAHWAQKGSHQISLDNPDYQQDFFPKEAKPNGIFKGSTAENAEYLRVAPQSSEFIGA

CYP3A4, sequence (P08684 whole entry): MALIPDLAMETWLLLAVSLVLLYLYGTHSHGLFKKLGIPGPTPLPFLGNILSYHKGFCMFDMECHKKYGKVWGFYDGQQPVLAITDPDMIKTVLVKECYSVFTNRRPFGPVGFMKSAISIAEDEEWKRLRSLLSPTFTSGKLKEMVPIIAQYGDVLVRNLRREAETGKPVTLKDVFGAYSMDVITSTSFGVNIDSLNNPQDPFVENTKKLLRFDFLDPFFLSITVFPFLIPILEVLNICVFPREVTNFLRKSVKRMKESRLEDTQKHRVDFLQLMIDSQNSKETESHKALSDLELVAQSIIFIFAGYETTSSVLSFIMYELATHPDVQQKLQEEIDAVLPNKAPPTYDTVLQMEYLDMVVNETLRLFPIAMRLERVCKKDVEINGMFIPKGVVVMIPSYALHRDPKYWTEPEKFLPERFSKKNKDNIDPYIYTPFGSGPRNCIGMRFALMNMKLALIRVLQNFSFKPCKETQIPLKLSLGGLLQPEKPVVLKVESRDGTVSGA

## CC#CC(=O)N1CCC[C@H]1c1nc(-c2ccc(C(=O)Nc3ccccn3)cc2)c2c(N)nccn12 [Formula (2), (S)-4-(8-amino-3-(1-(but-2-ynoyl)pyrrolidin-2-yl)imidazo[1,5-α]pyrazin-1-yl)-N-(pyridin-2-yl)benzamide]
[1]
  metabolism by CYPs: metabolized by CYP3A4
[2]
  glutathione binding and depletion: binds to glutathione but does not deplete glutathione
[3]
  drug-drug interaction potential through CYP enzymes: very unlikely to cause clinical drug-drug interactions
[4]
  EC50: 8.2 nM
[5]
  immunosuppressive tumor associated MDSCs: significant reduction
  immunosuppressive tumor associated TAMs: significant reduction
  immunosuppressive tumor associated Tregs: significant reduction
  number of tumors: fewer overall tumors
  tumor volumes versus vehicle (microCT): significant decrease
[6]
  reduction of obinutuzumab-stimulated NK cell degranulation (CD56+/CD107a+ NK cells): minimal effect
[7]
  effect on Th17 cells / Th17 development: no adverse effect
[8]
  effect on Treg development: no adverse effect
[9]; C1D28 and C2D28
  % change in MDSC (monocytic) level over 28 days versus % ALC change: increasing MDSC (monocytic) %
[9]; C1D28 or C2D28
  % change in NK cell level over 28 days versus % ALC change: increasing NK cell %
[10]
  CCL2 levels: significant decrease
  CXCL12 levels: significant decrease
[11]
  effect on human platelet-mediated thrombus formation: does not interfere with thrombus formation; also recorded: no significant effect
[12]; CVX-induced human platelet aggregation
  effect on GPVI platelet aggregation: does not
[12]; purified human platelets, convulxin (CVX)
  IC50: 1150 nM
[13]
  activity in binding assays: significant activity only against the A3 adenosine receptor
[14]
  inhibition of in vitro EGFR phosphorylation: no inhibition

From US20240197742A1, “Therapeutic Combinations of a CD19 Inhibitor and a BTK Inhibitor” (Acerta Pharma B.V., priority 2015, published 2024)
